Results as given in patent US10059708B2, “Therapeutic targeting of the interleukin 1 receptor-associated kinase 4 (IRAK4) in leukemias characterized by rearrangements in the mixed lineage leukemia gene (MLL-r)” (Northwestern University, priority 2016, dated 2018).
“Also recorded” adds a separate entry of the source.

Legend:
Human IRAK4 = target: T1, Human IRAK4 (Homo sapiens, UniProt Q9NWZ3); experiment: IRAK4 kinase inhibition assay (ADP-Glo); type: biochemical; conditions: for Inhibition of IRAK4 kinase activity: 100 uM of each inhibitor, 12.5 uM ATP, relative activity to DMSO (FIG. 15); for IRAK4 kinase inhibition: at increasing concentration (FIG. 16B)
T1 sequence (Q9NWZ3 1-460): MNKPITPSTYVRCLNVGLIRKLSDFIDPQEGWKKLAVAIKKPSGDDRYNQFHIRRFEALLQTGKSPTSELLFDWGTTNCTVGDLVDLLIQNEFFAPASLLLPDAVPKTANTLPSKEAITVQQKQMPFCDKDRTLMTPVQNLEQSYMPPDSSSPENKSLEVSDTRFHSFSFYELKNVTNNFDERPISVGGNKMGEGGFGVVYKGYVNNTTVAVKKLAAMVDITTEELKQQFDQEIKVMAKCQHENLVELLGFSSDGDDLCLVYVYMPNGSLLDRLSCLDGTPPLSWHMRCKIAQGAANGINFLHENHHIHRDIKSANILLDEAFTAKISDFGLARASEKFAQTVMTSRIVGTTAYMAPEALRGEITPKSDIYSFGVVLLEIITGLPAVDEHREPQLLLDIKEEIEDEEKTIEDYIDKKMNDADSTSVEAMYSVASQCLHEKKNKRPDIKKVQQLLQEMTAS
Protocol: FIG. 15. Inhibition of IRAK4 kinase activity by NU's IRAK4 kinase inhibitors. 10 ng IRAK4, 12.5 uM ATP and 500 ng MBP (substrate) were used in the IRAK4 kinase assay. 100 uM of each inhibitor were used individual in the assay and the reaction product ADP was detected by the ADP-GLO assay. Relative activity to DMSO is shown.
(§1) FIG. 16. Development of novel compounds (NUCC0200618 and NUCC0200554) that stabilize the wild-type MLL protein and slow leukemic cell growth through IRAK4 inhibition. A) Western blotting for MLL protein levels in cells treated with the indicated compounds designed and synthesized at Northwestern. Protein stabilization is observed to increase by 6 hours of treatment. B) Luciferase-based IRAK4 kinase assays (Promega) with the indicated doses of the new compounds. C) Cell viability counts after 3 days of treatment with the indicated doses of the new compounds.
The newly synthesized compounds were tested in an IRAK4 kinase inhibition assay as follows. In a 10 μl reaction, 10 ng Human IRAK4, 12.5 μM ATP, 500 ng dephosphorylated MBP (EMD Millipore), and different IRAK inhibitors were used in 1× kinase buffer (60 mM HEPES-NaOH, pH 7.5, 3 mM MgCl2, 3 mM MnCl2, 1.2 mM DTT, 0.1% BSA) at room temperature for 45 minutes. The ADP formed from the kinase reaction was measured by the ADP-Glo™ Kinase Assay (Cat.#V9101) and the luminescence was measured with a Tecan Infinite M1000 plate reader.

wild-type MLL protein = experiment: MLL stabilization assay (western blotting) with new compounds; type: cell-based; conditions: western blotting for MLL protein levels (FIG. 16A)
Protocol: as §1
The newly synthesized compound NUCC0200554 (Compound 16 of Example 2) and compound NUCC0200618 (Compound 21 of Example 2) were further tested in MLL stabilization assay, in an IRAK4 kinase activity as described above, and in a SEM cell proliferation assay as follows. SEM (ACC-546) leukemia cells were maintained in Iscove's Modified Dulbecco's Medium (IMDM) with 10% FBS. Viable SEM cells were seeded at 0.2 million/ml, and treated with different concentrations of inhibitors at the indicated concentrations for three days. Viable cells were monitored by trypan blue exclusion staining and counted using a Vi-CELL XR cell counter. Data are represented as Mean±SD (n=3).

SEM cells = experiment: RNA-seq gene expression profiles of SEM cells, new versus commercial IRAK inhibitors; type: cell-based, human; conditions: 3 days
From the text: FIG. 17. Comparison of novel IRAK4 inhibitors (NUCC numbers) with commercially available IRAK inhibitors (referred to here as IRAK1/4 and IRAK4) on gene expression in leukemia cells as determined by RNA-seq. SEM cells were maintained in IMDM medium with 10% FBS. […] SEM cells were harvested and used for total RNA-seq. A: PCA plot of each group with different treatments. […] B: Distance plot of each group with the indicated treatments.
The gene expression profiles of SEM cells treated with newly synthesized compound NUCC0200554 (Compound 16 of Example 2) and compound NUCC0200618 (Compound 21 of Example 2) as follows. After inhibitor treatment for 3 days, SEM cells were collected and lysed with Trizol reagent. Total RNA was extracted from Trizol according to the manufacturer's instructions. The RNA was treated with DNase I (NEB) and cleaned with the Qiagen RNeasy mini kit. 500 ng RNA was used for library preparation with TruSeq Stranded Total RNA with Ribo-Zero Gold kit (Illumina, RS-123-2201). The sequenced reads were aligned to the human genome (UCSC hgl9) with TopHat 2.1.0 using gene annotations from Ensembl 72. Differential gene expression was performed with Deseq2.

endogenous MLL protein = experiment: MLL protein levels / stability in HEK293 cells (western blotting, cycloheximide chase); type: cell-based, human; set-up: dose or concentration left out as unconfirmed; conditions: for indicated times or different concentrations for 24 hr, relative to DMSO
MLL-UBE2O interaction = MLL-UBE2O interaction (HaloTag purification, MudPIT, co-immunoprecipitation); type: cell-based, human; set-up: dose or concentration left out as unconfirmed; conditions: Halo-MLL-Inter-transfected HEK293 cells
Protocol: (§2) FIG. 3. […] (D) Halo-MLL-Inter-transfected HEK293 cells were treated with […]/4 inhibitor for 24 hr, purified with HaloLink resin, and subjected to MudPIT analysis. […] Each row represents a peak of MLL occupancy (n=6,250), with rows ordered by decreasing MLL occupancy in the inhibitor-treated condition. […] Boxplots depict the read coverage for all MLL peaks. The p value was calculated with the Wilcoxon signed-rank test. See also FIG. 10.

MLL occupancy = experiment: MLL ChIP-seq in HEK293 cells; type: cell-based, human
Protocol: as §2
FIG. 10. […] Occupancy in reads per million (rpm)±3 kb around the center of peak is shown (N=6250). Genes are ordered by MLL occupancy in the inhibitor treatment. […] The read counts of all the MLL peaks were plotted and the Wilcoxon signed-rank test was used to calculate the p value (F).
Chromatin Immunoprecipitation Sequencing. […] ChIP-seq reads were aligned to the mouse (UCSC mm9) or human genome (UCSC hg19). Alignments were processed with Bowtie version 1.1.2, allowing only uniquely mapping reads with up to two mismatches within the 50 bp read. The resulting reads were extended to 150 bases toward the interior of the sequenced fragment and normalized to total reads aligned (reads per million, rpm). […] The average coverage (calculated using rpm tracks described above) across the entire region is shown in the boxplots where p values were calculated with the Wilcoxon signed-rank test. […]

REH cells = experiment: REH cell proliferation (trypan blue, Vi-CELL XR); type: cell-based, human; conditions: IRAK1/4 inhibitor
Protocol: FIG. 4. […] Viable cells were seeded at 0.2 million/mL, and they were monitored by trypan blue exclusion staining and counted using a Vi-CELL XR cell counter. Data are represented as mean±SD (n=3). […] Data are represented as mean±SD (n=3). (C) Venn diagram of deregulated genes in SEM cells by IRAK1/4 and IRAK4 inhibitors. […] (D) Venn diagram of deregulated genes in SEM and REH cells by both inhibitors. Little overlap was observed between REH and SEM cells. […] Each cluster is represented by different colors and a circle node represents each enriched term. (G) UBE2O depletion and IRAK inhibition affect a common subset of genes in SEM cells. […] Heatmaps represent Z score-normalized values. See also FIG. 11.
Stabilization of MLL through IRAK Inhibition and UBE2O Depletion Regulates a Specific Gene Regulatory Network in MLL Leukemia. To measure the consequence of stabilizing MLL in MLL leukemia cells, we determined the effects of IRAK inhibition on cell proliferation of REH (MLL-germline leukemia) and SEM (MLL-AFF1) cells. Both of these cell lines are derived from precursor B cell ALL patient blast cells, and, therefore, they have been studied when comparing non-MLL (REH) and MLL-dependent (SEM) leukemia gene expression (Guenther et al., 2008).

SEM and REH cells = experiment: Total RNA-seq, SEM versus REH cells; type: cell-based, human; conditions: 2 days of treatment
Protocol: Total RNA Sequencing. […] Total RNA was extracted from Trizol according to the manufacturer's instructions. The RNA was treated with DNase I (NEB) and cleaned with the QIAGEN RNeasy mini kit. 500 ng RNA was used for library preparation with TruSeq Stranded Total RNA with Ribo-Zero Gold kit (Illumina, RS-123-2201). The sequenced reads were aligned to the human genome (UCSC hgl9) with TopHat 2.1.0 using gene annotations from Ensembl 72. Differential gene expression was performed with EdgeR (Empirical analysis of digital gene expression data in R) version 3.08 (Robinson et al., 2010). Adjusted p values were computed using the Benjamini-Hochburg method. […] P values for Venn diagrams were performed with the hypergeometric test.

MLL-AF9 leukemia = experiment: Murine MLL-AF9 leukemia transplantation model; type: in vivo, C57BL/6 mice; conditions: treatment from day 10 after transplantation; IRAK1/4 inhibitor 8 mg/kg, IRAK4 inhibitor 75 mg/kg i.p. every other day; vehicle mice all dead by 31 days
From the text: After transformation of MLL-AF9, c-Kit+ HSPCs were transplanted into lethally irradiated C57BL/6 mice with 1 3 106 transformed cells and 2 3 105 support cells. Leukemia cells from primary AML mice were isolated and transplanted into sublethally irradiated C57BL/6 mice. Drug treatments were started at day 10 or 19 after transplantation. (B) Kaplan-Meier survival curves of secondary transplanted C57BL/6 mice after vehicle and IRAK1/4 or IRAK4 inhibitor treatment at day 19 (blast phase). Vehicle or IRAK inhibitors were administered every other day by intraperitoneal injection for a total of five treatments. Leukemia was confirmed at the endpoint for each transplant mouse. […] The p values were calculated using the log rank test. […] The p values were calculated using the log rank test. […]
We further assessed the effects of the IRAK inhibitors in vivo using the murine MLL-AF9 leukemia transplantation model (FIG. 7A) (Volk et al., 2014). […]
Murine MLL-AF9 Leukemia Model. […] The mice were monitored for signs of acute leukemia for 2-3 months and euthanized when leukemia was evident (weight loss below 16.75 g, reduced mobility, malaise, palpable spleen, and hunched back). […]
Animal Treatment. […] Mice were monitored for leukemia development and leukemia was verified after the mice were sacrificed upon signs of illness (weight loss below 16.75 g, partial paralysis, malaise, palpable spleen, and hunched back).

MDS and T-ALL cells = conditions: subset of MDS and T-ALL cells with high expression of IRAK1; cited from earlier work

| Inhibition of IRAK4 kinase activity (Human IRAK4) | IRAK4 kinase inhibition (Human IRAK4) | Compound | MLL stabilization (wild-type MLL protein) | PCA plot grouping of RNA-seq profile (SEM cells; 5 uM) | PCA plot grouping of RNA-seq profile (SEM cells; 10 uM) | MLL protein levels (MLL N320) (endogenous MLL protein) | MLL protein levels (MLL N320) (endogenous MLL protein; listed as IRAK1/4 inhibitor I) | MLL-UBE2O interaction (MLL-UBE2O interaction) | genome-wide MLL occupancy (MLL occupancy; HEK293 cells, 6,250 MLL peaks) | MLL occupancy at MLL target genes HOXA, HOXC, FOXC1 (MLL occupancy; HEK293 cells, 24 hr, D2M7U and NT86 antibodies) | REH cell proliferation (REH cells) | genes downregulated in both REH and SEM cells (SEM and REH cells) [genes] | genes upregulated in both REH and SEM cells (SEM and REH cells) [genes] | mice that still did not develop MLL-AF9 leukemia as of day 55 (MLL-AF9 leukemia) | effect of IRAK1/4 inhibitor alone (MDS and T-ALL cells) | sensitization to BCL2 inhibitor treatment (MDS and T-ALL cells) |
| --- | --- | --- | --- | --- | --- | --- | --- | --- | --- | --- | --- | --- | --- | --- | --- | --- |
| inhibit IRAK4 kinase activity | inhibit IRAK4 kinase | O=C(Nc1ncc(-c2cccc(O)c2)[nH]1)c1ccccc1 [NUCC0200618, N-(5-(3-hydroxyphenyl)-1H-imidazol-2-yl)benzamide] | stabilize MLL | very similar profiles | group together |  |  |  |  |  |  |  |  |  |  |  |
|  |  | O=C(Nc1nc2ccccc2n1CCN1CCOCC1)c1cccc([N+](=O)[O-])c1 [IRAK1/4 inhibitor] |  |  |  | stabilizes endogenous MLL protein; also recorded: stabilizes MLL protein from proteasomal degradation in a dose-dependent manner | increased levels of MLL protein in a time- and dose-dependent manner | substantially decreased; also recorded: decreases MLL-UBE2O interaction | significant increases in MLL occupancy; also recorded: MLL occupancy is significantly increased; also recorded: general increase in MLL occupancy | enhanced MLL occupancy; also recorded: increases MLL occupancy at HOXA and HOXC loci; also recorded: increased MLL occupancy | no effect | 238 | 186 | eight of ten | does not substantially impair these cells | sensitize a subset of MDS and T-ALL cells |
| inhibit IRAK4 kinase activity | inhibit IRAK4 kinase | Nc1cccc(-c2cnc(NC(=O)c3cccc(Cl)c3)[nH]2)c1 [NUCC0200554, N-(5-(3-aminophenyl)-1H-imidazol-2-yl)-3-chlorobenzamide] | stabilize MLL |  | very similar profiles |  |  |  |  |  |  |  |  |  |  |  |
